Results from patent publication US7465401B2, “Treatment of chloraminated water” (Water Corporation, priority 2003, dated 2008).

Columns and labels:
nitrification = assay: Field trial: covered reservoir dosed with copper sulphate; ammonia, nitrite and nitrate measured at inlet and outlet; settings: copper about 0.25 mg/L for six weeks
Procedure: The levels of ammonia, nitrite and nitrate were measured both at reservoir inlet and outlet.

[1] = test system: ammonia oxidising bacteria, cultured from a chloraminated system; assay: Ammonia level over days in a dechlorinated chloraminated water sample dosed with ammonia and ammonia oxidising bacteria; format: cell-based
Procedure: After the elimination of chlorine, a chloraminated water bulk sample was dosed with excess ammonia to achieve 1.50 mg/L ammonia-N concentration. The bulk sample was dosed with ammonia oxidising bacteria, cultured from a chloraminated system.
The bulk sample was then subsampled into 9 separate portions. These portions were dosed as follows: • 1. no dosage • 2. 0.1 mg/L copper • 3. 0.2 mg/L copper • 4. 0.3 mg/L copper • 5. 0.2 mg/L zinc • 6. 0.4 mg/L zinc • 7. 0.2 mg/L copper, 0.1 mg/L zinc • 8. 0.1 mg/L copper, 0.2 mg/L zinc • 9. 0.2 mg/L copper, 0.4 mg/L zinc.
The samples were measured over subsequent days to determine the ammonia levels.

[2] = 0.1 mg/L copper, 1.50 mg/L ammonia-N at start
[3] = 0.2 mg/L copper, 1.50 mg/L ammonia-N at start
[4] = 0.3 mg/L copper, 1.50 mg/L ammonia-N at start

Structure (SMILES) | microbiological activity following dosing (nitrification) | nitrate and nitrite levels at reservoir outlet (nitrification; detention period 3.5 days) | percentage of ammonia surviving from inlet to outlet (nitrification; detention period 3.5 days) | time after which the ammonia level begins to fall [1, 2] | time to fall to the base ammonia level of about 0.1 mg/L [1, 2] [days] | time the ammonia level was maintained [1, 3] | time to reach the base ammonia level [1, 3] [days] | time the ammonia level was maintained [1, 4] [days] | time to reach the base ammonia level [1, 4] [days] | effect of zinc on the efficacy of the copper dose ([1]; zinc 0.1-0.4 mg/L in conjunction with copper 0.1-0.2 mg/L)
[Cu] [copper] | significant reduction | substantial reduction | substantial increase | about seven | ~12 | about 15 days | 19 | 34 | 40 | 
[Zn] [zinc] |  |  |  |  |  |  |  |  |  | decrease the efficacy of the copper dose
